Measured values as given in patent US20230382863A1, “MEK INHIBITORS AND USES THEREOF” (Ikena Oncology, Inc., priority 2022, published 2023).
Where two headings read alike, the source gives them in different places.

Tests used:
uMEK/BRAF = uMEK/BRAF (Homo sapiens (Human), UniProt Q02750); assay: MEK-RAF Binding Assay (uMEK/BRAF HTRF)
pERK HCT-116 (G13D) = pERK HCT-116 (G13D) ICW (4 hour); format: cell-based
MEK1-CRAF complex = MEK1-CRAF complex (Homo sapiens (Human), UniProt Q02750); assay: Stabilization of MEK1-CRAF complex assay (AlphaLISA); format: binding
Method: MEK1 was diluted to 4 nM, and nickel chelate donor beads and glutathione acceptor beads were diluted to 80 μg/mL. CRAF was diluted to a top concentration of 160 nM, which was subsequently diluted to 80, 40, 20, 10, 5, 2.5, 1.25, and 0.625 nM through 1:2 serial dilution.
Exemplary MEK inhibitor compounds (0, 0.01, 0.1, or 1 μM) were added to a 384-AlphaPlate (PerkinElmer, 6008350) by a digital liquid dispenser (Tecan D300e) based on a total volume of 20 μL reaction mixture.
5 μL 4×MEK1 stock solution was added to wells A1-P20 by multichannel pipettes. The plate was sealed with clear olefin sealing tape (Thermo Scientific, 232701), centrifuged at 1000 rpm for 1 minute, and incubated at room temperature for 30 minutes.
5 μL 4×CRAF stock solution at different concentrations or 5 μL or 10 μL AlphaLISA buffer was added by multichannel pipettes. The plate was sealed, centrifuged at 1000 rpm for 1 minute, and incubated at room temperature for 60 minutes.
5 μL 4×glutathione acceptor beads were first added to all wells by multichannel pipettes. The ambient light was subsequently adjusted to <100 lux (light meter) before adding 5 μL 4×nickel chelate donor beads to the same wells. From this step on, the plate was covered with a black plate cover, centrifuged at 1000 rpm for 1 minute, and incubated at room temperature for 60 minutes.
Data were collected on a PHERAStar FSX (BMG LABTECH) using the AlphaLISA module (excitation: 680 nm, emission: 615 nm), with a gain of 3600. The excitation time was 0.30 seconds, and data collection started after a 0.04-second delay for a total integration time of 0.60 seconds.
The individual AlphaLISA counts of wells with exemplary MEK inhibitor compound were divided by the average AlphaLISA counts of wells without compound to obtain AlphaLISA signal/background ratio (S/B). The dissociation constant (KD) of MEK1-CRAF was calculated using nonlinear regression curve fit in GraphPad PRISM® 9.0 software.

[1] = Cassette pharmacokinetics studies in mice; format: in vivo; settings: male, Balb/c, plasma; Mouse, PO, 5 mg/kg
Method: Pharmacokinetics studies were conducted using cassette dosing protocols, with test compounds administered per mouse. Treatment groups were 3 mice (˜6-8 weeks old, ˜20-30 g Balb/c male mice) per route of administration. Compounds were formulated in 5% DMSO and 95% PEG400 with final concentrations of 0.5 mg/mL for IV and PO dosing. Compounds were dosed at 2 mg/kg for IV dosing and 5 mg/kg for PO dosing. Blood samples were withdrawn at 0.083, 0.25, 0.5, 1.0, 2.0, 4.0, 6.0, 8.0, and 24 hours following IV dosing, and 0.25, 0.5, 1.0, 2.0, 4.0, 6.0, 8.0, and 24 hours following PO dosing. Blood samples were centrifuged at 4,000 g for 5 minutes at 4° C. to obtain plasma samples. Plasma samples were diluted with acetonitrile containing internal standard, vortexed for 30 seconds, then centrifuged at 4,000 rpm for 15 minutes at 4° C. The supernatant was diluted with water, and compound concentration was determined by HPLC/MS/MS compared to calibration standards of 0.5-1,000 ng/mL.
Where route is listed as “IV*”, the compound was dosed IV at 1 mg/kg.

[2] = tested on: Phosphorylation of ERK1/2 in AsPC1 cells; assay: 4 hour pERK1/2 HTRF Assay; format: cell-based; settings: Homo sapiens, ASPC1, read-out: pERK AsPC-1 HTRF (4 hour): Average IC50 (nM); AsPC-1, 4 hour
Method: AsPC1 cells were seeded at 20,000 cells/well overnight in 96-well plates, then treated with a 12-point dose response of compounds (Starting dose of 3000 nM and 3-fold dilution) for 4 hours. AsPC1 cells are a K-Ras mutant cell line. Phosphorylation of ERK1/2 on residues Thr202 and Tyr204 were detected using a Homogenous Time-Resolved Fluorescence (HTRF) assay (Cisbio Cat #64ERKPEG). Briefly, ERK phosphorylation was detected using a sandwich assay format using two phospho-ERK specific antibodies, one labelled with EU^3+-Cryptate (donor) and the second with d2 (acceptor). The Fluorescence Resonance Energy Transfer (FRET) towards the d2 acceptor was detected at a wavelength of 665 nm. ERK1/2 phosphorylation levels were normalized to total ERK1/2 protein levels in each well. IC50 values were determined by fitting a variable slope, four parameters curve to the compound concentration to normalized Phospho-ERK1/2 relationship.

[3] = Homo sapiens, read-out: pERK HCT-116 (G13D) ICW (4 hour): Average IC50 (nM)
[4] = read-out: pERK HCT-116 (G13D) ICW (4 hour): Average IC50

IC50 (uMEK/BRAF) | IC50 (pERK HCT-116 (G13D); [3]) | further results | Molecule
< 100 nM | < 100 nM | – | Cc1c(Oc2cccc(N=S(C)(N)=O)c2)c(C(=O)NC2CC2)c(Nc2ccc(I)cc2F)n(C)c1=O (stereo in doubt) [Compound I-8, (R)-4-(3-((amino(methyl)oxo-lambda6-sulfaneylidene)amino)phenoxy)-N-cyclopropyl-2-((2-fluoro-4-iodophenyl)amino)-1,5-dimethyl-6-oxo-1,6-dihydropyridine-3-carboxamide]
< 100 nM | < 100 nM | – | CNS(=O)(=O)Nc1cccc(Oc2c(C(=O)NC3CC3)c(Nc3ccc(I)cc3F)n(C)c(=O)c2C)c1C [Compound I-3]
< 100 nM | < 100 nM | – | CNS(=O)(=O)Nc1cccc(Oc2c(C(=O)NC3CC3)c(Nc3ccc(I)cc3F)n(C)c(=O)c2C)c1F [Compound I-4, N-cyclopropyl-4-{2-fluoro-3-[(methylsulfamoyl)amino]phenoxy}-2-[(2-fluoro-4-iodophenyl)amino]-1,5-dimethyl-6-oxopyridine-3-carboxamide]
< 100 nM | < 100 nM | – | CNS(=O)(=O)Nc1cccc(Oc2c(C(=O)NC3CC3)c(Nc3ccc(I)cc3F)n(C)c(=O)c2C)c1 [Compound I-5, N-cyclopropyl-2-((2-fluoro-4-iodophenyl)amino)-1,5-dimethyl-4-(3-((N-methylsulfamoyl)amino)phenoxy)-6-oxo-1,6-dihydropyridine-3-carboxamide]
< 100 nM | < 100 nM | – | Cc1c(Oc2cccc(NS(N)(=O)=O)c2)c(C(=O)NC2CC2)c(Nc2ccc(I)cc2F)n(C)c1=O [Compound I-6]
< 100 nM | < 100 nM | – | CNS(=O)(=O)Nc1cc(F)cc(Oc2c(C(=O)NC3CC3)c(Nc3ccc(I)cc3F)n(C)c(=O)c2C)c1 [Compound I-10]
< 100 nM | 100 to 1000 nM | – | Cc1c(Oc2cccc(CS(=O)(=O)N(C)C)c2)c(C(=O)NC2CC2)c(Nc2ccc(I)cc2F)n(C)c1=O [Compound I-11]
< 100 nM | 1000 to 10000 nM | – | CNS(=O)(=O)n1ccc2c(Oc3c(C(=O)NC4CC4)c(Nc4ccc(I)cc4F)n(C)c(=O)c3C)cccc21 [Compound I-12]
100 to 1000 nM | 100 to 1000 nM | – | Cc1c(Oc2ccc3c(c2)NS(=O)(=O)NC3)c(C(=O)NC2CC2)c(Nc2ccc(I)cc2F)n(C)c1=O [Compound I-13]
100 to 1000 nM | 100 to 1000 nM | – | CNS(=O)(=O)Nc1cc(Oc2c(C(=O)NC3CC3)c(Nc3ccc(I)cc3F)n(C)c(=O)c2C)ccc1F [Compound I-15]
100 to 1000 nM | 100 to 1000 nM | – | Cc1c(Oc2cccc(CS(N)(=O)=O)c2)c(C(=O)NC2CC2)c(Nc2ccc(I)cc2F)n(C)c1=O [Compound I-16]
100 to 1000 nM | 100 to 1000 nM | – | CNS(=O)(=O)Nc1ccc(F)c(Oc2c(C(=O)NC3CC3)c(Nc3ccc(I)cc3F)n(C)c(=O)c2C)c1 [Compound I-17]
100 to 1000 nM | 1000 to 10000 nM | – | CNS(=O)(=O)Nc1cc(Oc2c(C(=O)NC3CC3)c(Nc3ccc(I)cc3F)n(C)c(=O)c2C)ccc1OC [Compound I-18]
100 to 1000 nM | 1000 to 10000 nM | – | CNS(=O)(=O)Nc1cc(Oc2c(C(=O)NC3CC3)c(Nc3ccc(I)cc3F)n(C)c(=O)c2C)ccc1C [Compound I-22]
100 to 1000 nM | – | IC50 (pERK HCT-116 (G13D); [4]): 1000 to 10000 nM | CNS(=O)(=O)Cc1cccc(Oc2c(C(=O)NC3CC3)c(Nc3ccc(I)cc3F)n(C)c(=O)c2C)c1 [Compound I-23, N-cyclopropyl-2-((2-fluoro-4-iodophenyl)amino)-1,5-dimethyl-4-(3-((N-methylsulfamoyl)methyl)phenoxy)-6-oxo-1,6-dihydropyridine-3-carboxamide]
1000 to 10000 nM | 100 to 1000 nM | – | CNS(=O)(=O)Nc1cccc(Oc2c(C(=O)N(C)C3CC3)c(Nc3ccc(I)cc3F)n(C)c(=O)c2C)c1C [Compound I-24]
1000 to 10000 nM | 1000 to 10000 nM | – | CNS(=O)(=O)Nc1cc(OC)cc(Oc2c(C(=O)NC3CC3)c(Nc3ccc(I)cc3F)n(C)c(=O)c2C)c1 [Compound I-25]
1000 to 10000 nM | 1000 to 10000 nM | – | CNS(=O)(=O)Nc1ccc(OC)c(Oc2c(C(=O)NC3CC3)c(Nc3ccc(I)cc3F)n(C)c(=O)c2C)c1 [Compound I-26]
– | – | KD Ratio (mean), compound to DMSO (MEK1-CRAF complex; compound 0.01 μM): 0.87; KD Ratio (mean), compound to DMSO (MEK1-CRAF complex; compound 0.1 μM): 0.62; KD Ratio (mean), compound to DMSO (MEK1-CRAF complex; compound 1 μM): 0.47; AUC(0-inf) [1]: 2940 ng·h/mL; AUC(0-t) [1]: 2750 ng·h/mL; Cmax [1]: 783 ng/mL; Tmax [1]: 0.8 h; half-life [1]: 1.82 h; IC50 [2]: < 100 nM | CNS(=O)(=O)Nc1cccc(Oc2c(C(=O)NC3CC3)c(Nc3ccc(I)cc3F)n(C)c(=O)c2C)c1OC(F)(F)F [Compound I-40]
– | – | KD Ratio (mean), compound to DMSO (MEK1-CRAF complex; compound 0.01 μM): 0.79; KD Ratio (mean), compound to DMSO (MEK1-CRAF complex; compound 0.1 μM): 0.57; KD Ratio (mean), compound to DMSO (MEK1-CRAF complex; compound 1 μM): 0.48; AUC(0-inf) [1]: 3470 ng·h/mL; AUC(0-t) [1]: 3340 ng·h/mL; Cmax [1]: 1260 ng/mL; Tmax [1]: 0.5 h; half-life [1]: 1.62 h | CNS(=O)(=O)Nc1cccc(Oc2c(C(=O)NC(C)C)c(Nc3ccc(I)cc3F)n(C)c(=O)c2C)c1Cl [Compound I-41]
< 100 nM | – | KD Ratio (mean), compound to DMSO (MEK1-CRAF complex; compound 0.01 μM): 0.62; KD Ratio (mean), compound to DMSO (MEK1-CRAF complex; compound 0.1 μM): 0.42; KD Ratio (mean), compound to DMSO (MEK1-CRAF complex; compound 1 μM): 0.38; IC50 [2]: < 100 nM | CNS(=O)(=O)Nc1cccc(Oc2c(C(=O)NCC(F)(F)F)c(Nc3ccc(I)cc3F)n(C)c(=O)c2C)c1Cl [Compound I-45]
– | – | KD Ratio (mean), compound to DMSO (MEK1-CRAF complex; compound 0.01 μM): 0.58; KD Ratio (mean), compound to DMSO (MEK1-CRAF complex; compound 0.1 μM): 0.36; KD Ratio (mean), compound to DMSO (MEK1-CRAF complex; compound 1 μM): 0.35; AUC(0-inf) [1]: 4540 ng·h/mL; AUC(0-t) [1]: 4390 ng·h/mL; Cmax [1]: 1670 ng/mL; Tmax [1]: 0.5 h; half-life [1]: 1.6 h | CCNC(=O)c1c(Oc2cccc(NS(=O)(=O)NC)c2Cl)c(C)c(=O)n(C)c1Nc1ccc(I)cc1F [Compound I-54]
100 to 1000 nM | 100 to 1000 nM | – | Cc1c(Oc2ccc3c(c2)CNS(=O)(=O)N3)c(C(=O)NC2CC2)c(Nc2ccc(I)cc2F)n(C)c1=O [Compound I-59]
100 to 1000 nM | < 100 nM | – | Cc1c(Oc2ccc3c(c2)CN(C)S(=O)(=O)N3)c(C(=O)NC2CC2)c(Nc2ccc(I)cc2F)n(C)c1=O [Compound I-60]
100 to 1000 nM | 100 to 1000 nM | – | Cc1c(Oc2ccc3c(c2)CNS(=O)(=O)N3C)c(C(=O)NC2CC2)c(Nc2ccc(I)cc2F)n(C)c1=O [Compound I-61]
< 100 nM | < 100 nM | – | Cc1c(Nc2ccc3c(c2)CNS(=O)(=O)N3)c(C(=O)NC2CC2)c(Nc2ccc(I)cc2F)n(C)c1=O [Compound I-62]
100 to 1000 nM | – | IC50 (pERK HCT-116 (G13D); [4]): 100 to 1000 nM | N-cyclopropyl-2-[(2-fluoro-4-iodophenyl)amino]-4-(3-methanesulfonoimidamidophenoxy)-1,5-dimethyl-6-oxopyridine-3-carboxamide [Compound I-20]
